The values that follow come from patent publication US10821092B2, “Viscous topical ocular formulations” (Encompass Development, Inc., priority 2014, dated 2020).

Test [1] deals with rabbit eye. Briefly: Blink response to surface stimulation in rabbits: onset and duration of anesthesia. In kind it is in vivo, New Zealand White Rabbits. To be noted: as shown in the working examples. Here is the method: This rabbit study was performed in order to evaluate various formulations. General guidelines for these studies are attached here as Attachment 1. This guideline defines the screening of six (6) formulations using two (2) different viscosity enhancing agents. The two agents selected were Carboxymethylcellulose (CMC) and Sodium Hyluronate (HA). The specifics of these formulations are described in Attachment 2.
A statistical analysis of the experimental results for both onset of action and the duration of anesthesia is provided below. The means were compiled and statistically compared to the controls in each individual formulation. The significance or non-significance is noted as (S=Significant P value <0.001, NS=Not Significant P Value >0.05). The duration results are summarized here in Table 1.
Six different formulations were tested and the onset and duration of action was evaluated.
The commercially available Tetracaine hydrochloride 0.5% Ophthalmic Solution was used as the control.
New Zealand White Rabbits were obtained from Harlan Sprague Dawley. They were housed in the animal facility at Mercer
Dosing was performed with the experimental formulation in one eye by dropping the formulation into the rabbit eye with the aid of a dropper and the standard marketed product was administered in the contra lateral eye as a control. Multiple experiments were run with the same group of rabbits. […]

The conditions of test [2]: cited from earlier work.

For the compound `CCCCNc1ccc(C(=O)OCCN(C)C)cc1` [tetracaine], in test [1], the “duration of anesthesia after administration to the eye” value is “up to 55 minutes”. Besides, the onset of anesthesia in test [2] (background statement on tetracaine ophthalmic solution) is at most 30 s. Moreover, in test [2] (background statement, cataract surgery), the “duration of anesthetic properties” value was 15 to 20 min.
